Counter-ions that a name gives are not always drawn. Like-named read-outs stand apart in the source and are kept apart here.
Assays:
[1] = gastrointestinal tract simulation system, fasted state, Sporanox solution with or without water; format: in vitro ADME
Method: FIGS. 5A-7B are a series of graphs showing the results of an experiment, simulating fasted state conditions, in which tests are performed in an experimental setup as shown in FIG. 1. […] At the start of the first experimental run, 20 mL of Sporanox® solution (corresponding to a dose of 200 mg itraconazole) was added to the stomach (without water) (Vdose 1=20 mL) whereas at the start of the second run, 20 mL of Sporanox solution was added together with 240 mL of water to the first compartment (with water) (Vdose 2=260 mL). […] Itraconazole concentrations were determined through UHPLC chromatography coupled to UV detection. All experiments were performed in biological triplicate.

[2] = cited from earlier work
[3] = cited from earlier work; remark: listed apart in the source

area under the curve of the permeated compound ([1]; with versus without water, outer vessel (sink)) | AUC of solute concentration in the duodenum (fed state with carbohydrate solution compared to fasted state) | AUC of solute concentration in the duodenum (fed state with elevated stomach pH) | Compound | behaviour of itraconazole in the duodenum ([1]; without water, duodenum pH 6.5) | aqueous solubility [2] | decrease in indinavir bioavailability ([3]; high carbohydrate meal compared to fasted) [%] | decrease in indinavir bioavailability ([3]; high fat meal compared to fasted) [%] | decrease in indinavir bioavailability ([3]; high protein meal compared to fasted) [%]
absence of a substantial difference |  |  | CCC(C)n1ncn(-c2ccc(N3CCN(c4ccc(OCC5COC(Cn6cncn6)(c6ccc(Cl)cc6Cl)O5)cc4)CC3)cc2)c1=O (centres unmarked) [Itraconazole, itraconazole] | precipitation of a fraction of the administered dose | very low aqueous solubility |  |  | 
 | increased | decreased substantially | CC(C)(C)NC(=O)[C@@H]1CN(Cc2cccnc2)CCN1C[C@@H](O)C[C@@H](Cc1ccccc1)C(=O)N[C@H]1c2ccccc2C[C@H]1O [indinavir sulfate] |  |  | 45 | 34 | 68
